Test results published in patent US9308262B2, “Pharmaceutical composition for administration to nails” (NOVALIQ GMBH, priority 2011, dated 2016).

Test: Penetration of drug from SFA-based carrier into excised human toe nails
Type: in vitro ADME
Conditions: for depth below the nail surface at which significant tacrolimus concentrations were found: 1 mg/mL tacrolimus in F6H8 with 3.8 wt.-% ethanol, 1,000 min, 40 μm slices
Description: Tacrolimus was dissolved in a liquid carrier comprising F6H8 and 3.8 wt.-% ethanol to obtain a clear solution having a tacrolimus concentration of 1 mg/mL. The composition was used to evaluate the penetration of tacrolimus from an SFA-based carrier into human nails.
Excised human toe nails were obtained and washed in isotonic sodium chloride solution. For each nail, a filter membrane of 16 mm in diameter (2.01 cm^2) was loaded with 30 μL of the test solution, placed onto the nail and incubated for 1,000 min. At the end of the period, the remaining amount of the test solution in the filter and on the nail was collected. From each nail, punch biopsies of 5 mm in diameter (0.1963 cm^2) were obtained. The punch biopsies were frozen and microtomised at −40° C. into 20 horizontal slices of 40 μm thickness. Each slice was extracted and analysed for tacrolimus by HPLC-MS, as were the collected amounts of non-permeated formulation.
The experiment of Example 1 was repeated, except that a solution of ciclopiroxolamine was used instead of a tacrolimus solution. The test composition contained 1% (w/v) of ciclopiroxolamine dissolved in a vehicle of F6H8 and ethanol (85/15 wt.-%).

| fraction of the administered amount of ciclopiroxolamine found in the nail matrix (1% (w/v) ciclopiroxolamine in F6H8 and ethanol (85/15 wt.-%), 1,000 min incubation) [%] | depth below the nail surface at which significant tacrolimus concentrations were found [μm] | depth below the nail surface at which significant tacrolimus concentrations were found (listed as Tacrolimus) [μm] | total amount of tacrolimus found in the nails, relative to the administered dose (30 μL of 1 mg/mL tacrolimus solution in F6H8 with 3.8 wt.-% ethanol, 1,000 min incubation, HPLC-MS) | Compound | depth distribution of ciclopiroxolamine in the nail matrix (1% (w/v) ciclopiroxolamine in F6H8 and ethanol (85/15 wt.-%), 1,000 min) |
| --- | --- | --- | --- | --- | --- |
| 49.5 |  |  |  | Cc1cc(C2CCCCC2)n(O)c(=O)c1 [ciclopiroxolamine] | Significant amounts of drug were found throughout the depth of the nail matrix |
|  | 400 | ≥ 400 | approx. 9% | C=CC[C@@H]1/C=C(\C)C[C@H](C)C[C@H](OC)[C@H]2O[C@@](O)(C(=O)C(=O)N3CCCC[C@H]3C(=O)O[C@H](/C(C)=C/[C@@H]3CC[C@@H](O)[C@H](OC)C3)[C@H](C)[C@@H](O)CC1=O)[C@H](C)C[C@@H]2OC [tacrolimus] |  |
